From US20240279710A1, “FLUORESCENT PROBES” (TOHOKU TECHNO ARCH CO., LTD., priority 2021, published 2024) come the findings set out here.

Experiment [1] has as its system retinal ganglion cells. Put plainly: Glutamic acid injury of retinal ganglion cells isolated from iPS cell-derived retinal tissue. Format: cell-based, human. The conditions noted are these: glutamic acid 300 μM, probe 5 μM added 1 hour later, imaged 1 hour thereafter; FIG. 24. The method, then: A glutamic acid injury model that activated a calpain to induce a retinal ganglion cell injury was produced from the iPS cell-derived three-dimensional stereoscopic retinal tissue, and calpain activity with Compound 19 was evaluated by using the model. First, to identify a retinal ganglion cell injury caused by a glutamic acid injury, retinal ganglion cells were isolated from the iPS cell-derived three-dimensional stereoscopic retinal tissue with auto MACS pro (trademark) and CD90 MicroBeads. Glutamic acid (final concentration: 300 μM) was added to the cells to be caused to react therewith for 1 hour. Compound 19 (final concentration: 5 μM) was added thereto 1 hour after the addition of glutamic acid, and images of the state and fluorescence of the cells were taken (RGB and B/W modes) with a fluorescence microscope (ZEISS Axio Vert.A1) 1 hour thereafter.

Experiment [2] deals with calpain. Briefly: Rabbit NMDA injury model, ocular fundus imaging. Type of experiment: in vivo. The conditions noted are these: for staining of nerve cells with HMRG in ocular fundus: 30, 45 and 60 minutes after probe into the eye (Compound 19 18.3 μM 19 μL; Compound 16 20 μM 19 μl or 38 μl). Here is the method:
Black Dutch rabbits were each subjected to general anesthesia with a mixed liquid of ketamine and xylazine. N-Methyl-D-aspartate (NMDA) (12 mM, 50 μL) or PBS was administered into an eye of the rabbit. 9 Hours after that, the rabbit was anesthetized with a mixed liquid of ketamine and xylazine again, and Compound 19 (18.3 μM, 19 μL), Compound 16 (20 μM, 19 μl), or Compound 16 (20 μM, 38 μl) was administered into the eye. Images of an ocular fundus were taken with Mirante (a confocal scanning diode laser ophthalmoscope manufactured by Nidek Co., Ltd.) before the administration of each of the compounds and after the lapse of a predetermined time from the administration.

Experiment [3] concerns the target T1, calpain-1 from human erythrocytes (Homo sapiens, UniProt P07384).
T1 construct: calpain-1 from human erythrocytes; purchased Merck Millipore 208713; host or cells: human erythrocytes (natural source)
T1 sequence (P07384 1-714): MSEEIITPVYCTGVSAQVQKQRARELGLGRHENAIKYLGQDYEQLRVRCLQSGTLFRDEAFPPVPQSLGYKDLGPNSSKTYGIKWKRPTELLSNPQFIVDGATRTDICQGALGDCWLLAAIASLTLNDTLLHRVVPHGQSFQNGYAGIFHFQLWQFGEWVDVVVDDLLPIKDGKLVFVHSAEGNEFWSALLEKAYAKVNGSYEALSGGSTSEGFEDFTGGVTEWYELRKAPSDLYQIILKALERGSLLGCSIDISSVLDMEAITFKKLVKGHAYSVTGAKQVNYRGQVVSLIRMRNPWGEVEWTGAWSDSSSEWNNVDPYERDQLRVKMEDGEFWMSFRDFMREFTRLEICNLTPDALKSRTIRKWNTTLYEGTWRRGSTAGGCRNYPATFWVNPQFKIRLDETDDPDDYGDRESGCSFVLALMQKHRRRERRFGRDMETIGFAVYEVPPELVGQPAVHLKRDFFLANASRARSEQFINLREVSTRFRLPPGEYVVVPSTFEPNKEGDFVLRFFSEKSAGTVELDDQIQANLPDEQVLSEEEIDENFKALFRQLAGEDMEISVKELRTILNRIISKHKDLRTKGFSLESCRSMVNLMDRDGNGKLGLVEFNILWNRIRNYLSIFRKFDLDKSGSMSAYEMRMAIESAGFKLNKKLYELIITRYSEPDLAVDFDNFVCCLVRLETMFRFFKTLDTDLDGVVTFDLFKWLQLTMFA
T1 sequence (P04632 1-268 partner): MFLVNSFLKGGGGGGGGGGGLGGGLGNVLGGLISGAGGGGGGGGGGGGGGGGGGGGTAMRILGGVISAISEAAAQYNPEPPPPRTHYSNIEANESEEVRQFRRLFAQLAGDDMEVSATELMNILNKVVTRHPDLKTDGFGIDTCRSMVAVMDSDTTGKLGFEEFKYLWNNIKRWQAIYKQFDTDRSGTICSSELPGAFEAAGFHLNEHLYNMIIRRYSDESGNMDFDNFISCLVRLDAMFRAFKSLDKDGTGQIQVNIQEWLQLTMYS
Briefly: Fluorescence assay with calpain-1. Type of experiment: biochemical. The conditions noted are these: 10 μM probe, 17.4 U/mL calpain-1, 5 mM CaCl2, 37° C., FIG. 4. Here is the method:
The fluorescence assays of Compound 19 and Compound 16 with time were performed. Specifically, 17.4 U/mL of calpain-1 and 5 mM CaCl2 were added to a 50 mM TRIS buffer (pH: 7.4, 2 mM EGTA, 2 mM DTE) containing 10 μM of each of the synthesized fluorescent probes to perform an enzyme reaction at 37° C. Each of the compounds to which calpain-1 and CaCl2 were not added was similarly subjected as a negative control to the measurement.
The fluorescence assays of Compounds 16 to 36 were similarly performed. 50 Units per milliliter (Compounds 16 and 19 to 25) or 17.4 U/mL (Compounds 16 to 18 and 26 to 36) of calpain-1 and 5 mM CaCl2 were added to a 50 mM TRIS buffer (pH: 7.4, 2 mM EGTA, 2 mM DTE) containing 10 μM of each of the synthesized fluorescent probes to perform an enzyme reaction at 37° C.
Next, similar fluorescence assays of Compounds 37, 42, 45, 48, 51, 53, 55, 57, and 59 with calpain-1 were performed. Specifically, 17.4 U/mL of calpain-1 and 5 mM CaCl2 were added to a 50 mM TRIS buffer (pH: 7.4, 2 mM EGTA, 2 mM DTE) containing 10 μM of each of the synthesized fluorescent probes to perform an enzyme reaction at 37° C. Each of the compounds to which calpain-1 was not added was used as a control.
To evaluate an influence of a R^12-L-O— group on the reactivity of each of compounds having the same amino acids with calpain-1, the fluorescence assays of Compounds 37 to 66 with calpain-1 were performed in accordance with the above-mentioned method. Specifically, 17.4 U/mL of calpain-1 and 5 mM CaCl2 were added to a 50 mM TRIS buffer (pH: 7.4, 2 mM EGTA, 2 mM DTE) containing 10 μM of each of the synthesized fluorescent probes to perform an enzyme reaction at 37° C., followed by the measurement of an increase in fluorescence intensity of each of the compounds 10 minutes after the addition of calpain-1.

[4] abbreviates: rabbits administered NMDA, Compound 19 18.3 μM 19 μL, FIG. 23.

As to `COCC(=O)N[C@@H](CC(C)C)C(=O)N[C@@H](CCSC)C(=O)Nc1ccc2c(c1)Oc1cc(N)ccc1C21OCc2ccccc21` (stereo partly drawn) [Compound 19], the “fluorescence of isolated retinal ganglion cells” value in experiment [1] is recorded as “enhancement of the fluorescence”. For the same compound, the “number of HMRG-positive cells in PBS rabbits compared to NMDA rabbits” value in experiment [2] (Compound 19 (19 μL) and Compound 16 (38 μl), FIG. 23) is “significantly reduced”. The “reactivity in relation to dose, compared with Compound 16” value in experiment [2] (rabbit NMDA injury model, administration into the eye) is “satisfactory reactivity even when used in a dose smaller than that of Compound 16”. For the same compound, the “staining of nerve cells with HMRG in ocular fundus” value in experiment [2] (rabbits administered NMDA (12 mM, 50 μL)) is listed as “many nerve cells were clearly stained with HMRG”; in experiment [2] (rabbits administered PBS), “substantially no staining of the nerve cells with HMRG”. For the same compound, in experiment [2] (setting [4]), the “number of HMRG-positive cells compared to Compound 16 (19 μl)” value was “significantly increased”. Also, in experiment [2] (setting [4]), the “number of HMRG-positive cells compared to Compound 16 (38 μl)” value is “tended to increase”. Further, the “change in fluorescence intensity with time by calpain-1” value in experiment [3] (excitation 475 nm, fluorescence 500-550 nm) was “functioned as a fluorescent probe for calpain-1”. In experiment [3], the “reactivity with calpain-1 compared with Compound 16 (fluorescence with time)” value was “further improved in reactivity with calpain-1”.
